The text below walks through data of patent US10525070B2, “Method of treating heart failure” (priority 2015, dated 2020).

The structures appear in SMILES notation. Several values for one entry are separate records, joined by “and”; a condition that tells them apart may be missing. Equal values may be shown once. Entries after “also recorded” stand apart in the source; their conditions may differ.

Holding throughout (type): in vivo
Test [1] has as its system Tfr1^hrt/hrt mice. The test is described as follows: NR rescue experiment, survival of Tfr1^hrt/hrt mice. The text has this: 129/SvEv mice bearing a floxed Tfrc allele were crossed with transgenic C57BL/6 mice expressing Cre recombinase under the control of the a-MyHC promoter. Backcrossing was with 129/SvEv mice for more than 10 generations and after the initial phenotypic characterization, all studies used mice with a homogeneous 129/SvEv background. Animals were genotyped by polymerase chain reaction (PCR) using genomic DNA from toe clips. Primers for Tfrc alleles, Cre, Hjv alleles, and Rosa26 are described in Table 1.
One-way ANOVA was performed for comparisons between two means, including when the comparison was between the means of WT and Tfr1^hrt/hrt. Survival analysis was performed using Logrank in Graphpad software. P<0.05 was considered statistically significant.
An independent statistical analysis for survival analysis was also performed as described below.
(§1) Survival time was modeled as follows: Tij=μ+Bj+sij
(§2) Where Tij was the survival time (in days) for the i-th mouse in the j-th group. The model explained this in terms of a baseline mean m, an effect bj for the j-th group (relative to baseline) and inter-mouse variation eij. The model was fit using ordinary least squares (1-way ANOVA).
(§3) For the NR rescue experiment, the baseline was Tfr1^hrt/hrt with PBS. There was no significant improvement in mean survival when using just Tfr1^hrt/hrt (0.625 days, p-value=0.26, Table 3). There was, however, a significant improvement in the Tfr1^hrt/hrt with NR group (2.29 days, p-value<0.001). For statistical calculations, lifespan was over 19.6 days for wild-type mice.

Another test concerns WT mice. Kind of test: NR rescue experiment, survival of WT mice with NR. The note with it: baseline Tfr1^hrt/hrt with PBS, for calculations lifespan was over 19.6 days for wild-type mice.
Excerpt: as §1, §2, §3

Test [2] deals with Tfr1^hrt/hrt mice. Kind of test: NAD/NADH ratios in tissue with and without NR treatment. To be noted: measurements from tissue.
Test [3] relates to hearts from Tfr1^hrt/hrt mice. Kind of test: UPR^MT mRNA levels in hearts of NR-treated mice (real-time PCR). To be noted: P10 hearts, NR treated vs untreated, FIGS. 19A and 19B. The method, then:
Total heart RNA was isolated from flash-frozen tissue using the RNeasy Fibrous Tissue Mini Kit (Qiagen) and reverse transcribed as described in Schmidt et al. (2008) Cell Metab. […] For the microarray analysis, the Affymetrix GeneChip® Mouse Genome 430 2.0 Array was used. A minimum of 200 ng RNA was used for each sample. RNA samples were processed by the Duke Microarray Shared Resource Services. Transcript abundance was quantified by 2-step real-time PCR, using amplification conditions as described in Schmidt et al. (2008) Cell Metab. […] Primers are summarized in Table 2 and Rpl19 was used as an internal control.
For orientation: Quantitative PCR measures a nucleic acid by following its amplification.

The test system of test [4] is hearts from Tfr1^hrt/hrt mice. Kind of test: p62 protein levels in hearts of NR-treated mice. The note with it: NR treated vs untreated, FIGS. 20A and 20B. The text has this:
Atg9A (Novus Biologicals).

Turning to `NC(=O)c1ccc[n+]([C@@H]2O[C@H](CO)[C@@H](O)[C@H]2O)c1` [NR, nicotinamide riboside], the Extension of lifespan result in the test with Tfr1^hrt/hrt mice [1] (Tfr1^hrt/hrt mice, NR administration, FIG. 7E) is listed as “up to 5 days”. The Prolongation of lifespans result with Tfr1^hrt/hrt mice [1] (Tfr1^hrt/hrt mice, NR vs vehicle, FIG. 7E) was “up to 50%”. Besides, the “Effect: improvement in mean survival relative to baseline” value in the test with Tfr1^hrt/hrt mice [1] (Tfr1^hrt/hrt with NR, 750 mg/kg IP daily from P5, baseline Tfr1^hrt/hrt with PBS (10.375), 1-way ANOVA model, p<0.001, 750 mg/kg) was 2.29 days and 2.292 days. The “Lifespan of treated mice (in words)” value in the test on Tfr1^hrt/hrt mice [1] (in the absence of iron therapy) is reported as “increased the lifespan”. Further, in the test with WT mice, the “Effect: survival relative to baseline” value is 19.625 days. Further, the NAD/NADH ratios entry in the test on Tfr1^hrt/hrt mice [2] is recorded as “inconclusive”. For the same molecule, the “Expression of UPR^MT mRNAs (Atf4, Lonp1, Ddit3, Fgf21) in heart” value in test [3] is given as “decreased expression; also recorded: blunted”. For the same molecule, the “Accumulation of p62 in the hearts” value in test [4] is listed as “alleviated the accumulation”.
